Assay results taken from patent publication US8765117B2, “Generation of vascularized human heart tissue and uses thereof” (The General Hospital Corporation, priority 2009, dated 2014).
Entries after “also recorded” stand apart in the source; their conditions may differ.

Legend:
Type in all cases: cell-based
[1] = test system: human ISL1-βgeo BAC transgenic cells; assay: Expansion of hES cell-derived ISL1+ clones on mouse CMC feeders with BIO
Description: FIGS. 9A-9B show the expansion and characterization of hES cell-derived ISL1+ cardiac progenitors. FIG. 9A show ISL1+ cells increased by BIO treatment. Day 6 EBs of human ISL1-βgeo BAC transgenic cells were dissociated and cultured on mouse CMC feeders for two days before treated with and without BIO for another five days. Colonies were stained with anti-ISL1 antibody and counted for ISL1+ ones. […] Cells dissociated from day 7 EBs of human ISL1-cre DsRed cells were plated on Wnt3a-secreting feeders, cultured for five days and FACS isolated. Gene expression of DsRed+ cells was compared with DsRed− cells. Bars represent mean±s.d.; n=3.
Canonical Wnt pathways can promote the expansion of Isl1+ cardiac progenitors in the mouse^18-20. […] The inventors then isolated human ISL1-cre DsRed cells from day 7 EBs, which were dissociated and plated on a plastic surface, MEF, Wnt3a-secreting, or L cell feeders.

[2] = test system: human Isl1+ primordial progenitors; assay: Differentiation of human Isl1+ primordial progenitors along vasculargenic lineages into Isl1+/CD31+ cells (FACS with anti-CD31); settings: for increase of human Isl1+/CD31+ (GFP+/CD31+) cells: VEGF D4-D22 or ALK5 inhibitor D7-D22, compared to absence of the agent; for proportion of Isl1−/CD31+ cells: human ES cells
Description: When Isl1+ is expressed in this ES cell line, the cells co-express GFP.

mouse Isl1+ cells = assay: Vasculargenic commitment of mouse ES cells into mouse Isl1+/CD31+ cells (FACS with anti-CD31); settings: for proportion of Isl1−/CD31+ cells: mouse ES cells; for vasculargenic commitment / differentiation into Isl1+/CD31+ cells (in words): mouse cells

Row | Compound | ISL1+ cells (in words) ([1]; BIO for five days on mouse CMC feeders) | increase of human ISL1+ clones ([1]; compared to CMC control) | increase of human Isl1+/CD31+ (GFP+/CD31+) cells [2] | increase of human Isl1+/CD31+ (GFP+/CD31+) cells ([2]; listed as ALK5i) [fold] | proportion of Isl1−/CD31+ cells [2] | vasculargenic commitment / differentiation into human Isl1+/CD31+ cells (in words) [2] | vasculargenic commitment / differentiation into human Isl1+/CD31+ cells (in words) ([2]; listed as ALK5i) | overall human Isl1+ (GFP+) population ([2]; prolonged treatment) | proportion of Isl1−/CD31+ cells (mouse Isl1+ cells) | vasculargenic commitment / differentiation into Isl1+/CD31+ cells (in words) (mouse Isl1+ cells) | vasculargenic commitment / differentiation into Isl1+/CD31+ cells (in words) (mouse Isl1+ cells; listed as ALK5i) | vessel-like structures in vitro ([2]; VEGF treatment) | vessel-like structures (mouse Isl1+ cells; Isl1+ (YFP+) cells sorted at D8, cultured with VEGF until D20) | increase of efficiency of differentiation into Isl1+/CD31+ cells (mouse Isl1+ cells; mouse Isl1+ cells, VEGF about 2 weeks from D4)
1 | O=C1Nc2cc(Br)ccc2/C1=C1/Nc2ccccc2/C1=N\O [BIO, 6-bromoindirubin-3′-oxime] | increased | over 30% |  |  |  |  |  |  |  |  |  |  |  | 
2 | NC(=O)c1ccc(-c2nc(-c3ccc4c(c3)OCO4)c(-c3ccccn3)[nH]2)cc1 [SB431542, 4-[4-(1,3-Benzodioxol-5-yl)-5-(2-pyridinyl)-1H-imidazol-2-yl]-benzamide] |  |  | 4-5 fold | 4 to 5 | increases the proportion of Isl1−/CD31+ cells | increases the efficiency of differentiation | promotes the vasculargenic commitment | reduced the overall human Isl1+ (GFP+) population | increases the proportion of Isl1−/CD31+ cells | increases the efficiency of differentiation | promotes the vasculargenic commitment |  |  | 
3 | VEGF |  |  |  |  | increases the proportion of Isl1−/CD31+ cells | promotes the vasculargenic commitment |  |  | increases the proportion of Isl1−/CD31+ cells | promotes the vasculargenic commitment; also recorded: increases efficiency of differentiation |  | produced vessel-like structures in vitro | demonstrated vessel-like structures | at least 2 fold
